# Laboratory results as given in patent publication US11986452B2, “Methods of reducing the risk of heart failure” (Amarin Pharmaceuticals Ireland Limited, priority 2021, dated 2024).
# System: statin-treated patients with elevated triglycerides
# Assay: Example 3: total (first and subsequent) ischemic events analysis (negative binomial, modified Wei-Lin-Weissfeld, Andersen-Gill, joint frailty)
# Format: in vivo, human
# Conditions: for Adjusted HR, total events / Unadjusted HR, total events / Adjusted HR, first event / Adjusted HR, second event / Adjusted HR, third event / Unadjusted HR, first event / Unadjusted HR, second event / Unadjusted HR, third event / Adjusted RR, total events / Unadjusted RR, total events / HR, Cardiovascular Death / HR, Non-fatal Cardiovascular Event: vs placebo; for Adjusted HR, first event / Adjusted HR, second event / Adjusted HR, third event / Unadjusted HR, first event / Unadjusted HR, second event / Unadjusted HR, third event: modified WLW; for HR, Cardiovascular Death / HR, Non-fatal Cardiovascular Event: joint frailty model; for Fatal events, %: after reduction
# From the text: The following study was a multi-center, placebo-controlled clinical trial the details of which are described above in Example 1, the REDUCE-IT design. […] The main outcomes were total primary composite endpoint events defined as cardiovascular death, nonfatal myocardial infarction, nonfatal stroke, coronary revascularization, or hospitalization for unstable angina and total key secondary composite endpoint events defined as cardiovascular death, nonfatal myocardial infarction, or nonfatal stroke. In the context of this study, total events refer to any first event as well as any subsequent event. Differences in total events were determined using other statistical models, including Andersen-Gill, Wei-Lin-Weissfeld (Li and Lagakos), both pre-specified, and a post hoc and joint-frailty analysis.
# For the present prespecified analysis, the primary outcome was the total of first plus subsequent ischemic events consisting of the composite of cardiovascular death, nonfatal myocardial infarction, nonfatal stroke, coronary revascularization, or hospitalization for unstable angina. […] Exploratory analyses of the total of first and subsequent events were also performed for the key secondary composite endpoint.
# Baseline characteristics were compared between treatment groups using the chi-squared test for categorical variables and the Wilcoxon rank sum test for continuous variables. There are several methods for analyzing first and subsequent (recurrent) event data. As a pre-specified statistical method, a negative binomial regression was used to calculate rates and rate ratios for total cardiovascular events, which accounts for the variability in each patient's risk of events. As pre-specified supportive analyses, the modified Wei-Lin-Weissfeld method (Li and Lagakos modification) was used to calculate hazard ratios (HRs) for the time to the first event, second event, or third event. An additional pre-specified analysis, the Andersen-Gill model using a Cox proportional-hazard with the counting-process formulation was performed to model the total events. In addition, in order to account for informative censoring due to cardiovascular death, the HR for total non-fatal events was calculated using a joint frailty model (See Rondeau V. Joint frailty models for recurring events and death using maximum penalized likelihood estimation: application on cancer events. Biostatistics. 2007; 8:708-21). The joint frailty model simultaneously estimates hazard functions for non-fatal and fatal CV events and takes into account the fact that patients who are prone to have nonfatal events have an elevated risk of a cardiovascular death. The application of the joint frailty model used a gamma distribution for the frailty term.
# Statistical analyses using the full adjudicated endpoint events dataset without exclusions using this bundling approach were also determined.
# [1] = key secondary composite endpoint, Andersen-Gill (I), full dataset
# [2] = key secondary composite endpoint, Andersen-Gill (I), reduced dataset
# [3] = key secondary composite endpoint, Andersen-Gill (II), full dataset
# [4] = key secondary composite endpoint, Andersen-Gill (II), reduced dataset
# [5] = key secondary composite endpoint, full dataset
# [6] = key secondary composite endpoint, reduced dataset
# [7] = key secondary composite endpoint, negative binomial, full dataset
# [8] = key secondary composite endpoint, negative binomial, reduced dataset
# [9] = key secondary endpoint, adjusted, reduced dataset
# [10] = key secondary endpoint, unadjusted, reduced dataset
# [11] = primary composite endpoint, Andersen-Gill (I), full dataset
# [12] = primary composite endpoint, Andersen-Gill (I), reduced dataset
# [13] = primary composite endpoint, Andersen-Gill (II), full dataset
# [14] = primary composite endpoint, Andersen-Gill (II), reduced dataset
# [15] = primary composite endpoint, full dataset
# [16] = primary composite endpoint, reduced dataset
# [17] = primary composite endpoint, negative binomial, full dataset
# [18] = primary composite endpoint, negative binomial, reduced dataset
# [19] = primary endpoint, adjusted, reduced dataset
# [20] = primary endpoint, unadjusted, reduced dataset
smiles,measurement,setting,value
"CC/C=C\C/C=C\C/C=C\C/C=C\C/C=C\CCCC(=O)OCC [icosapent ethyl, eicosapentaenoic acid ethyl ester]",Total (first and subsequent) ischemic events for the primary composite endpoint: relative risk reduction,in vivo,30%
same,"Adjusted HR, total events",[1],0.71
same,"Unadjusted HR, total events",[1],0.71
same,"Adjusted HR, total events",[2],0.72
same,"Unadjusted HR, total events",[2],0.72
same,"Adjusted HR, total events",[3],0.71
same,"Unadjusted HR, total events",[3],0.71
same,"Adjusted HR, total events",[4],0.72
same,"Unadjusted HR, total events",[4],0.72
same,"Adjusted HR, first event",[5],0.74
same,"Adjusted HR, second event",[5],0.75
same,"Adjusted HR, third event",[5],0.79
same,"Unadjusted HR, first event",[5],0.74
same,"Unadjusted HR, second event",[5],0.75
same,"Unadjusted HR, third event",[5],0.79
same,"Adjusted HR, first event",[6],0.74
same,"Adjusted HR, second event",[6],0.75
same,"Adjusted HR, third event",[6],0.79
same,"Unadjusted HR, first event",[6],0.74
same,"Unadjusted HR, second event",[6],0.75
same,"Unadjusted HR, third event",[6],0.79
same,"Adjusted RR, total events",[7],0.71
same,"Unadjusted RR, total events",[7],0.71
same,"Adjusted RR, total events",[8],0.72
same,"Unadjusted RR, total events",[8],0.71
same,"HR, Cardiovascular Death",[9],0.79
same,"HR, Non-fatal Cardiovascular Event",[9],0.68
same,"Fatal events, %",key secondary endpoint,45.0%
same,"Total events before reduction, %","key secondary endpoint, share of overall events",42.0%
same,"HR, Cardiovascular Death",[10],0.79
same,"HR, Non-fatal Cardiovascular Event",[10],0.68
same,Total key secondary endpoint events: RR vs placebo,negative binomial,0.72
same,"Adjusted HR, total events",[11],0.68
same,"Unadjusted HR, total events",[11],0.68
same,"Adjusted HR, total events",[12],0.69
same,"Unadjusted HR, total events",[12],0.69
same,"Adjusted HR, total events",[13],0.68
same,"Unadjusted HR, total events",[13],0.68
same,"Adjusted HR, total events",[14],0.69
same,"Unadjusted HR, total events",[14],0.69
same,"Adjusted HR, first event",[15],0.75
same,"Adjusted HR, second event",[15],0.68
same,"Adjusted HR, third event",[15],0.70
same,"Unadjusted HR, first event",[15],0.76
same,"Unadjusted HR, second event",[15],0.69
same,"Unadjusted HR, third event",[15],0.70
same,"Adjusted HR, first event",[16],0.75
same,"Adjusted HR, second event",[16],0.68
same,"Adjusted HR, third event",[16],0.69
same,"Unadjusted HR, first event",[16],0.76
same,"Unadjusted HR, second event",[16],0.69
same,"Unadjusted HR, third event",[16],0.69
same,"Adjusted RR, total events",[17],0.69
same,"Unadjusted RR, total events",[17],0.67
same,"Adjusted RR, total events",[18],0.70
same,"Unadjusted RR, total events",[18],0.68
same,"HR, Cardiovascular Death",[19],0.80
same,"HR, Non-fatal Cardiovascular Event",[19],0.67
same,"Fatal events, %",primary endpoint,45.0%
same,"Total events after reduction, %","primary endpoint, multiple endpoints in a single calendar day handled as a single event",41.0%
same,"HR, Cardiovascular Death",[20],0.80
same,"HR, Non-fatal Cardiovascular Event",[20],0.66
